Results published in patent US20230322659A1, “STROBILURIN TYPE COMPOUNDS AND THEIR USE FOR COMBATING PHYTOPATHOGENIC FUNGI” (priority 2020, published 2023).

Tests used:
[1] = test system: Phakopsora pachyrhizi (strain with amino acid substitution F129L in the mitochondrial cytochrome b protein); experiment: Use Example 1: protective control of soybean rust on soybeans (PHAKPA P2), greenhouse; type: in vivo; conditions: soybean seedlings inoculated 2 days after treatment, % diseased leaf area; for % PHAKPA Disease level P2 at 4 ppm: 4 ppm spray; for % PHAKPA Disease level P2 at 16 ppm: 16 ppm spray
Description: (§1) The compound was dissolved in a mixture of acetone and/or dimethylsulfoxide and the wetting agent/emulsifier Wettol, which is based on ethoxylated alkylphenoles, in a ratio (volume) solvent-emulsifier of 99 to 1 to give a total volume of 5 ml. Subsequently, water was added to total volume of 100 ml. This stock solution was then diluted with the described solvent-emulsifier-water mixture to the final concentration given in the table below.
(§2) Leaves of potted soybean seedlings were sprayed to run-off with the previously described spray solution, containing the concentration of active ingredient or their mixture as described below. The plants were allowed to air-dry. The trial plants were cultivated for 2 days in a greenhouse chamber at 23-27° C. and a relative humidity between 60 and 80%. Then the plants were inoculated with spores of Phakopsora pachyrhizi. The strain used contains the amino acid substitution F129L in the mitochondrial cytochrome b protein conferring resistance to Qo inhibitors. To ensure the success the artificial inoculation, the plants were transferred to a humid chamber with a relative humidity of about 95% and 20 to 24° C. for 24 hr. The trial plants were cultivated for up to 14 days in a greenhouse chamber at 23 to 27° C. and a relative humidity between 60 and 80%. The extent of fungal attack on the leaves was visually assessed as % diseased leaf area, the disease level of untreated controls was usually higher than 85%.
(§3) All test results below are given for the control of phytopathogenic fungi containing the amino acid substitution F129L in the mitochondrial cytochrome b protein conferring resistance to Qo inhibitors.

[2] = test system: Phakopsora pachyrhizi (strain with amino acid substitution F129L in the mitochondrial cytochrome b protein); experiment: Use Example 2: protective control of soybean rust on soybeans (PHAKPA P6), greenhouse; type: in vivo; conditions: soybean seedlings inoculated six days after treatment, % diseased leaf area; for % PHAKPA Disease level P6 at 4 ppm: 4 ppm spray; for % PHAKPA Disease level P6 at 16 ppm: 16 ppm spray
Description: as §1
as §2, with “active ingredient as described” for “active ingredient or their mixture as described”, “cultivated for six days in” for “cultivated for 2 days in”, “95% and 23 to 27°” for “95% and 20 to 24°”, “23 to 27° C. for” for “20 to 24° C. for”
as §3

Compound | % PHAKPA Disease level P2 at 4 ppm [1] | % PHAKPA Disease level P2 at 16 ppm [1] | % PHAKPA Disease level P6 at 4 ppm [2] | % PHAKPA Disease level P6 at 16 ppm [2]
CO/N=C(/C(=O)OC)c1cccc(C)c1CO/N=C/c1ccccc1 [Compound 1] | 100% | 96% | 90% | 83%
CNC(=O)/C(=N/OC)c1cccc(C)c1CO/N=C/c1ccccc1 [Compound 2] | 50% | 2% | 63% | 15%
CNC(=O)/C(=N/OC)c1cccc(C)c1CO/N=C/c1ccccc1C(F)(F)F [Compound 3] | 36% | 2% | 83% | 21%
